According to patent publication US6610846B1, “Heteroaromatic glucokinase activators” (Hoffman-La Roche Inc., priority 1999, dated 2003):

CS(=O)(=O)c1ccc(C(CC2CCCC2)C(=O)Nc2ccccn2)cc1S(C)(=O)=O (stereo not drawn) showed a melting point of 107 to 110 °C.
With O=C(Nc1nccs1)C(CC1CCCC1)c1ccc(Br)cc1 (stereo not drawn) [Example 2, 2-(4-Bromo-phenyl)-3-cyclopentyl-N-thiazol-2-yl-propionamide] the melting point was 201 to 202 °C.
In the case of Nc1ccc(C(CC2CCCC2)C(=O)Nc2nccs2)cc1 (stereo not drawn) [Example 4, 2-(4-Amino-phenyl)-3-cyclopentyl-N-thiazol-2-yl-propionamide], the melting point is reported as 102 to 107 °C.
Nc1cccc(C(CC2CCCC2)C(=O)Nc2nccs2)c1 (stereo not drawn) [Example 5, 2-(3-Amino-phenyl)-3-cyclopentyl-N-thiazol-2-yl-propionamide] showed a melting point of 158 to 160 °C.
In the case of O=C(Nc1nccs1)C(CC1CCCC1)c1cccc(Cl)c1 (stereo not drawn) [Example 6, 2-(3-Chloro-phenyl)-3-cyclopentyl-N-thiazol-2-yl-propionamide], the melting point is reported as 138.8 to 141.2 °C.
O=C(Nc1nccs1)C(CC1CCCC1)c1ccc(C(F)(F)F)cc1 (stereo not drawn) [Example 8, 3-Cyclopentyl-N-thiazol-2-yl-2-(4-trifluoromethyl-phenyl)-propionamide] gave a melting point of 210 to 212 °C.
For CSc1ccc(C(CC2CCCC2)C(=O)Nc2nccs2)cc1 (stereo not drawn) [Example 9, 3-Cyclopentyl-2-(4-methylsulfanyl-phenyl)-N-thiazol-2-yl-propionamide], the melting point was 195 to 196 °C.
In the case of O=C(Nc1nccs1)C(CC1CCCC1)c1ccc(SC(F)(F)F)cc1 (stereo not drawn) [Example 10, 3-Cyclopentyl-N-thiazol-2-yl-2-(4-trifluoromethylsulfanyl-phenyl)-propionamide], the melting point is reported as 58 to 60 °C.
For CS(=O)(=O)c1ccc(C(CC2CCCC2)C(=O)Nc2nccs2)cc1[N+](=O)[O-] (stereo not drawn) [Example 14, 3-Cyclopentyl-2-(4-methanesulfonyl-3-nitrophenyl)-N-thiazol-2-yl-propionamide], the melting point was 121 to 124 °C.
With O=C(Nc1ncc(CO)s1)C(CC1CCCC1)c1ccc(Cl)c(Cl)c1 (stereo not drawn) [Example 15, 3-Cyclopentyl-2-(3,4-dichlorophenyl)-N-(5-hydroxymethyl-thiazol-2-yl)-propionamide] the melting point was 128 to 130 °C.
Compound O=C(Nc1nc(CCO)cs1)C(CC1CCCC1)c1ccc(Cl)c(Cl)c1 (stereo not drawn) [Example 16, 3-Cyclopentyl-2-(3,4-dichlorophenyl)-N-[4-(2-hydroxyethyl)-thiazol-2-yl]-propionamide] has a melting point of 85 to 86 °C.
O=C(Nc1nc(CO)cs1)C(CC1CCCC1)c1ccc(Cl)c(Cl)c1 (stereo not drawn) [Example 17, 3-Cyclopentyl-2-(3,4-dichlorophenyl)-N-(4-hydroxymethyl-thiazol-2-yl)-propionamide] gave a melting point of 88 to 90 °C.
In the case of O=C(O)Cc1csc(NC(=O)C(CC2CCCC2)c2ccc(Cl)c(Cl)c2)n1 (stereo not drawn) [Example 18, {2-[3-Cyclopentyl-2-(3,4-dichlorophenyl)-propionylamino]-thiazol-4-yl}-acetic acid], the melting point is reported as 100 to 102 °C.
Work on O=C(O)c1cnc(NC(=O)C(CC2CCCC2)c2ccc(Cl)c(Cl)c2)s1 (stereo not drawn) [Example 19, 2-[3-Cyclopentyl-2-(3,4-dichlorophenyl)-propionylamino]-thiazole-5-carboxylic acid] yielded a melting point of 269 to 270 °C.
O=C(Nc1nccs1)C(CC1CCCC1)c1ccc([N+](=O)[O-])cc1 (stereo not drawn) [Example 22(A), 3-Cyclopentyl-2-(4-nitro-phenyl)-N-thiazol-2-yl-propionamide] showed a melting point of 186 to 187 °C.
With COC(=O)c1csc(NC(=O)C(CC2CCCC2)c2cccc(Cl)c2)n1 (stereo not drawn) [Example 30, 2-[2-(3-Chloro-phenyl)-3-cyclopentyl-propionylamino]-thiazole-4-carboxylic acid methyl ester] the melting point was 95 to 98 °C.
In the case of COC(=O)c1csc(NC(=O)C(CC2CCCC2)c2ccc(Cl)cc2)n1 (stereo not drawn) [Example 32, 2-[2-(4-Chloro-phenyl)-3-cyclopentyl-propionylamino]-thiazole-4-carboxylic acid methyl ester], the melting point is reported as 156 to 157 °C.
CS(=O)(=O)c1ccc(C(CC2CCCC2)C(=O)Nc2nc(CO)cs2)cc1 (stereo not drawn) [Example 35, 3-Cyclopentyl-N-(4-hydroxymethyl-thiazol-2-yl)-2-(4-methanesulfonyl-phenyl)-propionamide] showed a melting point of 124 to 126 °C.
CS(=O)(=O)c1ccc(C(CC2CCCC2)C(=O)Nc2nc(CCO)cs2)cc1 (stereo not drawn) [Example 36, 3-Cyclopentyl-N-[4-(2-hydroxyethyl)-thiazol-2-yl]-2-(4-methanesulfonyl-phenyl)-propionamide] showed a melting point of 84 to 87 °C.
Compound O=C(Nc1ccccn1)C(CC1CCCC1)c1ccc([N+](=O)[O-])cc1 (stereo not drawn) [Example 39(A), 3-Cyclopentyl-2-(4-nitro-phenyl)-N-pyridin-2-yl-propionamide] has a melting point of 152 to 154 °C.
CSc1ccc(C(CC2CCCC2)C(=O)Nc2ccccn2)cc1 (stereo not drawn) [Example 40, 3-Cyclopentyl-2-(4-methylsulfanyl-phenyl)-N-pyridin-2-yl-propionamide] gave a melting point of 127 to 128 °C.
For O=C(Nc1ccccn1)C(CC1CCCC1)c1ccc(SC(F)(F)F)cc1 (stereo not drawn) [Example 41, 3-Cyclopentyl-N-pyridin-2-yl-2-(4-trifluoromethylsulfanyl-phenyl)-propionamide], the melting point was 101 to 102 °C.
With CS(=O)(=O)c1ccc(C(CC2CCCC2)C(=O)Nc2ccccn2)cc1 (stereo not drawn) [Example 42, 3-Cyclopentyl-2-(4-methanesulfonyl-phenyl)-N-pyridin-2-yl-propionamide] the melting point was 172 to 173 °C.
Compound O=C(O)c1ccc(NC(=O)C(CC2CCCC2)c2ccc(Cl)cc2)nc1 (stereo not drawn) [Example 47, 6-[2-(4-Chloro-phenyl)-3-cyclopentyl-propionylamino]-nicotinic acid] has a melting point of 206 to 208 °C.
For CS(=O)(=O)c1ccc(C(CC2CCCC2)C(=O)Nc2ccc(C(=O)O)cn2)cc1 (stereo not drawn) [Example 48, 6-[3-Cyclopentyl-2-(4-methanesulfonyl-phenyl)-propionylamino]-nicotinic acid], the melting point was 191 to 193 °C.
With O=C(Nc1ccc(CO)cn1)C(CC1CCCC1)c1ccc(Cl)cc1 (stereo not drawn) [Example 50, 2-(4-Chloro-phenyl)-3-cyclopentyl-N-(5-hydroxymethyl-pyridin-2-yl)-propionamide] the melting point was 60 to 62 °C.
For O=C(Nc1ccc(O)cn1)C(CC1CCCC1)c1ccc(Cl)c(Cl)c1 (stereo not drawn) [Example 51, 3-Cyclopentyl-2-(3,4-dichloro-phenyl)-N-(5-hydroxy-pyridin-2-yl)-propionamide], the melting point was 79 to 81 °C.
With CS(=O)(=O)c1ccc(C(CC2CCCC2)C(=O)Nc2ccc(CO)cn2)cc1 (stereo not drawn) [Example 52, 3-Cyclopentyl-N-(5-hydroxymethyl-pyridin-2-yl)-2-(4-methanesulfonyl-phenyl)-propionamide] the melting point was 74 to 77 °C.
Work on Cc1ccc(NC(=O)C(CC2CCCC2)c2ccc(S(C)(=O)=O)cc2)nc1 (stereo not drawn) [Example 53(A), 3-Cyclopentyl-2-(4-methanesulfonyl-phenyl)-N-(5-methyl-pyridin-2-yl)-propionamide] yielded a melting point of 184 to 185 °C.
For O=C(Nc1ncc[nH]1)C(CC1CCCC1)c1ccc(Cl)c(Cl)c1 (stereo not drawn) [Example 55, 3-Cyclopentyl-2-(3,4-dichlorophenyl)-N-(1H-imidazol-2-yl)-propionamide], the melting point was 58 to 60 °C.
Compound Cc1cc(NC(=O)C(CC2CCCC2)c2ccc(Cl)c(Cl)c2)no1 (stereo not drawn) [Example 56, 3-Cyclopentyl-2-(3,4-dichlorophenyl)-N-(5-methyl-isoxazol-3-yl)-propionamide] has a melting point of 84 to 86 °C.
With O=C(Nc1ncco1)C(CC1CCCC1)c1ccc(Cl)c(Cl)c1 (stereo not drawn) [Example 57, 3-Cyclopentyl-2-(3,4-dichlorophenyl)-N-oxazol-2-yl-propionamide] the melting point was 134 to 136 °C.
Work on O=C(Nc1cccnn1)C(CC1CCCC1)c1ccc(Cl)c(Cl)c1 (stereo not drawn) [Example 58, 3-Cyclopentyl-2-(3,4-dichlorophenyl)-N-pyridazin-3-yl-propionamide] yielded a melting point of 70 to 71 °C.
O=C(Nc1ncccn1)C(CC1CCCC1)c1ccc(Cl)c(Cl)c1 (stereo not drawn) [Example 59, 3-Cyclopentyl-2-(3,4-dichlorophenyl)-N-pyrimidin-2-yl-propionamide] gave a melting point of 103 to 105 °C.
With O=C(Nc1ccncn1)[C@H](CC1CCCC1)c1ccc(Cl)c(Cl)c1 [Example 60, 3-Cyclopentyl-2(R)-(3,4-dichloro-phenyl)-N-pyrimidine-4-yl-propionamide] the melting point was 166.5 to 169.3 °C.
For C[S+]([O-])c1ccc(C(CC2CCCC2)C(=O)Nc2nccs2)cc1 (stereo not drawn) [Example 61, 3-Cyclopentyl-2-(4-methanesulfinyl-phenyl)-N-thiazol-2-yl-propionamide], the melting point was 170 to 173 °C.
With CCOC(=O)Cc1csc(NC(=O)C(CC2CCCC2)c2ccc(S(=O)(=O)C(F)(F)F)cc2)n1 (stereo not drawn) [Example 62, {2-[3-Cyclopentyl-2-(4-trifluoromethanesulfonyl-phenyl)-propionylamino]-thiazol-4-yl}-acetic acid ethyl ester] the melting point was 48 to 51 °C.
In the case of O=C(Nc1ccc(Br)cn1)C(CC1CCCC1)c1ccc(S(=O)(=O)C(F)(F)F)cc1 (stereo not drawn) [Example 63, N-(5-Bromo-pyridin-2-yl)-3-cyclopentyl-2-(4-trifluoromethanesulfonyl-phenyl)-propionamide], the melting point is reported as 130 to 132 °C.
In the case of O=C(Nc1nccs1)C(CC1CCCC1)c1ccc(Cl)c([N+](=O)[O-])c1 (stereo not drawn) [Example 64, 2-(4-Chloro-3-nitro-phenyl)-3-cyclopentyl-N-thiazol-2-yl-propionamide], the melting point is reported as 68 to 72 °C.
With CS(=O)(=O)c1ccc(C(CC2CCCC2)C(=O)Nc2ccc(Br)cn2)cc1[N+](=O)[O-] (stereo not drawn) [Example 66, N-(5-Bromo-pyridin-2-yl)-3-cyclopentyl-2-(4-methanesulfonyl-3-nitro-phenyl)-propionamide] the melting point was 80 to 83 °C.
In the case of CS(=O)(=O)c1ccc(C(CC2CCCC2)C(=O)Nc2nccs2)cc1NO (stereo not drawn) [Example 67, 3-Cyclopentyl-2-(3-hydroxyamino-4-methanesulfonyl-phenyl)-N-thiazol-2-yl-propionamide], the melting point is reported as 124 to 126 °C.
With CS(=O)(=O)c1ccc(C(CC2CCCC2)C(=O)Nc2nccs2)cc1N (stereo not drawn) [Example 68, 2-(3-Amino-4-methanesulfonyl-phenyl)-3-cyclopentyl-N-thiazol-2-yl-propionamide] the melting point was 207 to 209 °C.
